Patent publication US8268885B2, “Entry inhibitors of the HIV virus” (priority 2003, dated 2012)
Blank lines part the entries; values can stand above or below the molecule they belong to.

Key:
Format in all cases: cell-based
[1] = test system: cell-cell fusion between cell line persistently expressing HIV and a cell line expressing CD4 and CXCR4; test: entry reporter assay (ERA): inhibition of cell-cell fusion, FACS read-out; settings: for EC50: Human immunodeficiency virus 1, read-out: ERA assay EC50; for ERA assay % inh: cell-cell fusion, concentration not given
Method: (§1) The compounds were tested in the anti-viral replication assay using the MT4-LTR-EGFP cells and in the ERA assay. Toxicity was measured using MT4-CMV-EGFP cells.

[2] = toxicity assay using MT4-CMV-EGFP cells (reduced expression of GFP reporter); settings: human
Method: A toxicity assay wherein a reduced expression of the GFP reporter protein (Mt4-CMV-EGFP cells) serves as a marker for cellular toxicity of a test compound can be used to measure the toxicity of the present compounds.
as §1

HIV = test: anti-viral replication assay using MT4-LTR-EGFP cells; settings: Human immunodeficiency virus 1, read-out: antiviral EC50
Method: as §1

SMILES: O=C(COc1ccccc1)Nc1ccc(Oc2ccc([N+](=O)[O-])cc2)cc1 [Compound 24]
- EC50 [1]: 78.4 µM
- ERA assay % inh [1]: 68%
- CC50 [2]: > 100 µM
- EC50 (HIV): 19.5 µM

SMILES: COc1ccc(S(=O)(=O)Nc2ccc(Oc3ccc(NC(=O)COC(C)=O)cc3)cc2)cc1 [Compound 1, acetic acid {4-[4-(4-methoxy-benzenesulfonylamino)-phenoxy]-phenylcarbamoyl}-methyl ester]
- EC50 [1]: 92 µM
- ERA assay % inh [1]: 89%
- CC50 [2]: > 27.7 µM
- EC50 (HIV): 1.69 µM

SMILES: O=C(O)c1ccc(S(=O)(=O)Nc2ccc(Oc3cccc4cnccc34)cc2)cc1 [Compound 6]
- EC50 [1]: 182 µM
- ERA assay % inh [1]: 52%
- CC50 [2]: > 100 µM
- EC50 (HIV): 18.6 µM

SMILES: O=C(CNCCN1CCCC1)Nc1ccc(Oc2cccc3c2N(C(=O)CNCCN2CCCC2)CCC3)cc1 [Compound 7]
- EC50 [1]: > 200 µM
- ERA assay % inh [1]: 29%
- CC50 [2]: > 100 µM
- EC50 (HIV): 57.7 µM

SMILES: CCCCc1ccc(C(=O)NCc2cccc(Oc3ccc(NC(=O)c4ccc(CCCC)cc4)cc3)c2)cc1 [Compound 44]
- EC50 [1]: > 200 µM
- ERA assay % inh [1]: 22%
- CC50 [2]: > 32 µM
- EC50 (HIV): 2 µM

- EC50 (HIV): 3.92 µM
SMILES: COc1ccc(S(=O)(=O)Nc2ccc(Oc3ccc(NC(=O)c4cccc([N+](=O)[O-])c4)cc3)cc2)cc1 [Compound 37]
- CC50 [2]: > 32 µM

SMILES: COc1ccc(S(=O)(=O)Nc2ccc(Oc3ccc(NC(=O)c4ccco4)cc3)cc2)cc1 [Compound 40]
- EC50 [1]: 40.9 µM
- ERA assay % inh [1]: 79%
- CC50 [2]: 22.4 µM
- EC50 (HIV): 0.15 µM

- EC50 (HIV): 3.29 µM
SMILES: N#Cc1ccc(C(=O)Nc2ccc(Oc3cccc4cnccc34)cc2)cc1 [Compound 5]
- CC50 [2]: > 100 µM

SMILES: O=C(COc1ccccc1)Nc1ccc(Oc2ccc(NC(=O)c3ccco3)cc2)cc1 [Compound 34]
- EC50 [1]: > 200 µM
- ERA assay % inh [1]: 41%
- CC50 [2]: 83.2 µM
- EC50 (HIV): 1.24 µM

SMILES: O=C(COCc1ccccc1)NCc1cccc(Oc2ccc(NC(=O)COCc3ccccc3)cc2)c1 [Compound 43]
- EC50 [1]: 83.6 µM
- ERA assay % inh [1]: 54%
- CC50 [2]: > 32 µM
- EC50 (HIV): 11.8 µM

SMILES: O=C(Cc1ccccc1)Nc1ccc(Oc2ccc(NC(=O)Cc3ccccc3)cc2)cc1 [Compound 10]
- EC50 [1]: > 100 µM
- ERA assay % inh [1]: 48%
- CC50 [2]: > 32 µM
- EC50 (HIV): > 32 µM

SMILES: COc1cccc(C(=O)Nc2ccc(Oc3ccc(NC(=O)c4cccc(OC)c4)cc3)cc2)c1 [Compound 11]
- EC50 [1]: 68.9 µM
- ERA assay % inh [1]: 64%
- CC50 [2]: > 32 µM
- EC50 (HIV): > 32 µM

SMILES: O=C(Nc1ccc(Oc2ccc(NC(=O)c3cccc([N+](=O)[O-])c3)cc2)cc1)c1cccc([N+](=O)[O-])c1 [Compound 12]
- EC50 [1]: > 200 µM
- ERA assay % inh [1]: 17%
- CC50 [2]: 54.2 µM
- EC50 (HIV): 41.3 µM

- EC50 (HIV): 0.37 µM
SMILES: COc1cccc(C(=O)Nc2ccc(Oc3ccc(NC(=O)COc4ccccc4)cc3)cc2)c1 [Compound 30]
- CC50 [2]: 3.85 µM

SMILES: COc1ccc(S(=O)(=O)Nc2ccc(Oc3ccc(NC(=O)Cc4ccccc4)cc3)cc2)cc1 [Compound 39]
- EC50 [1]: > 100 µM
- ERA assay % inh [1]: 45%
- CC50 [2]: > 100 µM
- EC50 (HIV): 1.56 µM

SMILES: COc1ccc(S(=O)(=O)Nc2ccc(Oc3ccc(NC(=O)c4cccc(OC)c4)cc3)cc2)cc1 [Compound 36]
- EC50 [1]: > 200 µM
- ERA assay % inh [1]: 9%
- CC50 [2]: 5.87 µM
- EC50 (HIV): 1.05 µM

SMILES: O=C(COc1ccccc1)NCc1cccc(Oc2ccc(NC(=O)COc3ccccc3)cc2)c1 [Compound 42]
- EC50 [1]: > 200 µM
- ERA assay % inh [1]: 37%
- CC50 [2]: 46.5 µM
- EC50 (HIV): 3.77 µM

SMILES: CCCCc1ccc(C(=O)Nc2ccc(Oc3cccc4c3N(C(=O)c3ccc(CCCC)cc3)CCC4)cc2)cc1 [Compound 21]
- EC50 [1]: > 200 µM
- ERA assay % inh [1]: 9%
- CC50 [2]: > 100 µM
- EC50 (HIV): > 34 µM

SMILES: COc1ccc(S(=O)(=O)Nc2ccc(Oc3ccc([N+](=O)[O-])cc3)cc2)cc1 [Compound 29]
- EC50 [1]: 177 µM
- ERA assay % inh [1]: 59%
- CC50 [2]: 61.6 µM
- EC50 (HIV): 1.18 µM

SMILES: CC(=O)OCC(=O)Nc1ccc(Oc2ccc(NC(=O)COc3ccccc3)cc2)cc1 [Compound 35]
- EC50 [1]: 150 µM
- ERA assay % inh [1]: 55%
- CC50 [2]: 23.6 µM
- EC50 (HIV): 3.28 µM

SMILES: O=C(CN[C@@H](Cc1ccccc1)C(=O)O)Nc1ccc(Oc2cccc(C(=O)O)c2)cc1C(F)(F)F [Compound 8]
- EC50 [1]: > 200 µM
- ERA assay % inh [1]: 3%
- CC50 [2]: > 100 µM
- EC50 (HIV): > 100 µM

SMILES: O=C(Nc1ccc(Oc2cccc3c2N(C(=O)c2ccco2)CCC3)cc1)c1ccco1 [Compound 23, Furan-2-carboxylic acid {4-[1-(furan-2-carbonyl)-1,2,3,4-tetrahydro-quinolin-8-yloxy]-phenyl}-amide]
- EC50 [1]: 123 µM
- ERA assay % inh [1]: 92%
- CC50 [2]: 34.2 µM
- EC50 (HIV): 11.2 µM

SMILES: O=C(Nc1ccc(Oc2cccc3cnccc23)cc1)c1ccc([N+](=O)[O-])cc1 [Compound 4]
- EC50 [1]: > 200 µM
- ERA assay % inh [1]: 30%
- CC50 [2]: > 100 µM
- EC50 (HIV): 5.34 µM

SMILES: CN1CCN(CC(=O)Nc2ccc(Oc3ccc(NC(=O)CN4CCN(C)CC4)cc3)cc2)CC1 [Compound 16]
- EC50 [1]: > 200 µM
- ERA assay % inh [1]: 42%
- CC50 [2]: > 100 µM
- EC50 (HIV): 55 µM

SMILES: O=C(COc1ccccc1)Nc1ccc(Oc2ccc(NC(=O)Cc3ccccc3)cc2)cc1 [Compound 33]
- EC50 [1]: 196 µM
- ERA assay % inh [1]: 52%
- CC50 [2]: 30.2 µM
- EC50 (HIV): 5.01 µM

SMILES: O=C(COc1ccccc1)Nc1ccc(Oc2cccc3c2N(C(=O)COc2ccccc2)CCC3)cc1 [Compound 20]
- EC50 [1]: > 100 µM
- ERA assay % inh [1]: 39%
- CC50 [2]: > 32 µM
- EC50 (HIV): 3.25 µM

SMILES: O=C(COc1ccccc1)Nc1ccc(Oc2ccc(NC(=O)c3ccc4c(c3)OCO4)cc2)cc1 [Compound 32]
- EC50 [1]: > 200 µM
- ERA assay % inh [1]: 29%
- CC50 [2]: 19.9 µM
- EC50 (HIV): 4.17 µM

SMILES: O=C(COc1ccccc1)Nc1ccc(Oc2ccc(NC(=O)c3cccc([N+](=O)[O-])c3)cc2)cc1 [Compound 31]
- EC50 [1]: > 100 µM
- ERA assay % inh [1]: 13%
- CC50 [2]: 3.41 µM
- EC50 (HIV): 0.43 µM
